Test results from patent publication US20100092402A1, “TREATMENT OF RESPIRATORY DISEASE” (Mucokinetica Ltd., priority 2007, published 2010).
Read-outs that look alike come from different tables or passages of the source.

What was measured:
[1] = test system: cortical collecting duct of the rabbit kidney; settings: perfused; Muto et al. 1994; cited from earlier work
[2] = biological target: T1, epithelial amiloride-sensitive sodium channel (ENaC) (Homo sapiens, UniProt P37088+P51168+P51170); format: cell-based; settings: 1 μM or 100 μM, 90 min
T1 sequence (P37088 1-669): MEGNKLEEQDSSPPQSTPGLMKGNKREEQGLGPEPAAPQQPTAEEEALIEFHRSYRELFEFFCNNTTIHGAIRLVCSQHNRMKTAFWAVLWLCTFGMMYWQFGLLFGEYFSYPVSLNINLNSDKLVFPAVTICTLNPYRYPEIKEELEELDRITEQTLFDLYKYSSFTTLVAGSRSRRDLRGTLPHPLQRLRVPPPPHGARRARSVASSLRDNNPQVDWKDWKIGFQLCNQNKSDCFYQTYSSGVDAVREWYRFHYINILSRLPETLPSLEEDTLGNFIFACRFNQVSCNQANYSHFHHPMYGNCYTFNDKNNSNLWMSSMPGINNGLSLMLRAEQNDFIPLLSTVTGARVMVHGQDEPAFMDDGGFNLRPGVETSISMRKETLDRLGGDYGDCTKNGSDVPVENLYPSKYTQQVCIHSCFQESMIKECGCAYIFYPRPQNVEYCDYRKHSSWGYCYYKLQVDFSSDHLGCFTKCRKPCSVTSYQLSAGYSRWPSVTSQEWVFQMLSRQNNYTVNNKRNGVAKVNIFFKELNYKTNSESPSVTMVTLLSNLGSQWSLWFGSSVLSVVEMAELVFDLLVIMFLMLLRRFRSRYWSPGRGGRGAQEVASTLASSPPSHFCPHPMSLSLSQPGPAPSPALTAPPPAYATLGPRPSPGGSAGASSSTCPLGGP
T1 sequence (P51168 1-640): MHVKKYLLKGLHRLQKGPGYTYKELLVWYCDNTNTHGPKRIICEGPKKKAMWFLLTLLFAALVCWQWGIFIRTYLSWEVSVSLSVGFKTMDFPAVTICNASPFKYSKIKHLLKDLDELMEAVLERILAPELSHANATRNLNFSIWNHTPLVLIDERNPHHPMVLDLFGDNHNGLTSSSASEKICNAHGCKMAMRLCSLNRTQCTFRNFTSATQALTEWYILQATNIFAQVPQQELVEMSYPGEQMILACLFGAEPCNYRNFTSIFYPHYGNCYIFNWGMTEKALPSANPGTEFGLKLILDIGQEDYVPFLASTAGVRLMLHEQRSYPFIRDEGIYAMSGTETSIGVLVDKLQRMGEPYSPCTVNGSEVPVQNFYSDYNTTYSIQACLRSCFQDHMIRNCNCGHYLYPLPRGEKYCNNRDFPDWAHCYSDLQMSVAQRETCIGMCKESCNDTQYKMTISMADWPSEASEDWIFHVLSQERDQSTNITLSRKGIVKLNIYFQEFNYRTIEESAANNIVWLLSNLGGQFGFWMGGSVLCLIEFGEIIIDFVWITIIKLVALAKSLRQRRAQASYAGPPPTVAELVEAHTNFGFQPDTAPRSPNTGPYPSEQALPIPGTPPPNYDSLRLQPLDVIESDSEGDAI
T1 sequence (P51170 1-649): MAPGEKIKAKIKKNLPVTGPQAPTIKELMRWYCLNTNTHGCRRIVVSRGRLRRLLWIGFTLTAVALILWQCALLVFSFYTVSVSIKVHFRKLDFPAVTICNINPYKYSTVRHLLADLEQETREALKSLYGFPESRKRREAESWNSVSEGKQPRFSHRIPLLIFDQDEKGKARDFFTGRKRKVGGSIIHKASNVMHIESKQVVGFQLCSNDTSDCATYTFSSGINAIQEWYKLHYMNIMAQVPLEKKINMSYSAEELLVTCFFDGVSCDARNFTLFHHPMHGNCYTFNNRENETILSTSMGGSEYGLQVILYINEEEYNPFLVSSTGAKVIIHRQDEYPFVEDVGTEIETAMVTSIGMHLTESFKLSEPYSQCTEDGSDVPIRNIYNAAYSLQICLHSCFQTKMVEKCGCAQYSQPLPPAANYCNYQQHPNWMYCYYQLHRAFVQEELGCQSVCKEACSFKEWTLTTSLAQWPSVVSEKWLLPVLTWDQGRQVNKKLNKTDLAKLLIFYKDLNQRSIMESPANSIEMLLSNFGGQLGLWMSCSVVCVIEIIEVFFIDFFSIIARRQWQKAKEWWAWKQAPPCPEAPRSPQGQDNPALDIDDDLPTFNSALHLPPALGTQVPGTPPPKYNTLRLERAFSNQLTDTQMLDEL
Experimental: (§1) Human bronchial epithelial (HBE) cells were purchased from Cambrex Bioscience Ltd, UK., and were stored frozen in liquid nitrogen until required for use.
(§2) HBE cells were amplified by growing in secondary culture according to the suppliers' instructions. Cells were seeded at densities of between 3,000 to 4,000/cm^2 in plastic T-25 culture flasks in bronchial epithelial cell growth medium (BEGM) prepared from bronchial epithelial basal medium (BEBM, Cambrex, UK) supplemented with bovine pituitary extract, hydrocortisone, human epidermal growth factor, epinephrine, transferrin, insulin, retinoic acid, triiodothyronine, gentamicin, and amphotericin B. Cultures were maintained at 37° C. in 5% CO2 in a humidified incubator. Medium was changed every 1 to 3 days until cells were approximately 90% confluent. Cells were then passaged with trypsin EDTA according to the suppliers' instructions, and either used for further cell cultures, or cryopreserved in liquid nitrogen in BEGM containing 10% foetal bovine serum and 10% DMSO.
(§3) HBE cells were prepared for electrophysiology studies by growing as tertiary cultures on Snapwell (Corning) 0.4μ clear polyester membrane inserts 1.2 cm^2 coated with collagen IV (Sigma). Cells were seeded at approximately 10^5/cm^2 in 0.5 ml 1:1 DMEM (Cambrex, UK) BEGM containing bovine pituitary extract (50 μg/ml), hydrocortisone (0.5 μg/ml), human epidermal growth factor (0.5 ng/ml), epinephrine (0.5 μg/ml), transferrin (10 μg/ml), insulin (5 μg/ml), retinoic acid (50 nM), and gentamicin (50 μg/ml) (Danahay medium; Danahay et al. 2002). Snapwell inserts were mounted in 6-well plates with 3 ml Danahay medium in the wells, and grown at 37° C. in 5% CO2 in a humidified incubator. Medium was changed every 1 to 3 days. An apical air-liquid interface (ALI) was established as the cells achieved confluence (3 to 6 days) by removal of medium from the centre of the insert. Confluent differentiated bronchial epithelial cells were used for electrophysiology studies at between 15 and 29 days after establishing ALI.
(§4) Differentiated HBE cells grown to confluence at an air-liquid interface for 15 to 29 days were used to study substances for ability to achieve long duration down regulation of the epithelial amiloride-sensitive sodium channel (ENaC).
(§5) Step 1: Treatment with substance. For each group of cells treated with a substance, 30 μl of 100 times final concentration of substance was added to the 3 ml basolateral culture medium, mixed and 150 μl of the resultant basolateral fluid was transferred to the apical surface for 5 min. For non-treatment control groups of basolateral fluid with no added substance was transferred to the apical surface. After 5 min. equilibration the excess apical fluid was then transferred back to the basolateral side of the culture well.
(§6) Step 2: Variable period of incubation with the substance. Dependent on the individual experiment the cells were returned to the 37° C. incubator for periods of 0 min. to 120 min.
(§7) Step 3: Period of substance washout with fresh culture medium. For experiments to study the duration of a substance response the HBE cells on Snapwell inserts were washed with fresh culture medium (no added substance) at 37° C. and placed in fresh 6-well plates containing 3 ml fresh culture medium (no added substance) on the basolateral side. […] Step 3 was omitted in studies where the duration of the substance response was not investigated.
(§8) Step 4: Wash with Krebs-Ringer buffer and assembly in Ussing chambers. The Snapwell insert cultures of HBE cells were removed from the 6-well plates and washed with excess Krebs-Ringer buffer (120 mM-NaCl, 25 mM-NaHCO3, 3.3 mM-KH2PO4, 0.8 mM-K2HPO4, 1.2 mM-CaCl2, 1.2 mM-MgCl2, 10 mM-glucose) pH7.4 at 37° C. The inserts were then mounted in Ussing chambers (Snapwell diffusion chambers, Costar UK Ltd.). Each side of the chamber was filled with 5 ml Krebs-Ringer buffer and gassed continuously with 95% O2/5% CO2 at 37° C. […]

[3] = biological target: T2, epithelial amiloride-sensitive sodium channel (ENaC) (Homo sapiens, UniProt P37088+P51168+P51170); format: cell-based
T2 construct: Differentiated HBE cells grown to confluence at an air-liquid interface for 15 to 29 days were used; host or cells: primary human bronchial epithelial (HBE) cells, differentiated at air-liquid interface
Experimental: as §1, §2, §3, §4, §5, §6, §7, §8

[4] = test system: amiloride-sensitive (sodium-dependent) component of nasal PD; test: Nasal PD measurement during perfusion of human nasal epithelium; format: in vivo; settings: perfusion with 10^−5 M-amiloride
Experimental: The method of measurement of nasal PD was an adaptation of that described by Standaert et al. (2004).
Ringer/HEPES buffer solution was prepared containing 148 mM-NaCl, 4.05 mM-KCl, 1.2 mM-CaCl2, 1.2 mM-MgCl2, 2.4 mM-K2HPO4, 0.4 mM-KH2PO4, 10 mM-HEPES, and adjusted to pH 7.4. Low chloride Ringer/HEPES buffer solution was prepared by replacing NaCl with 148 mM-Na gluconate in the Ringer solution components.
Agar electrodes were prepared with 3.7% agarose dissolved in Ringer/HEPES buffer pH 7.4. The reference electrode was placed and taped in contact with a small area on the forearm where the epidermis had been removed by gentle abrasion. A dual lumen nasal recording electrode was prepared using a lm length of soft plastic tubing 2.4 mm diameter, into which 1 mm diameter polythene tubing was inserted through the wall and along the lumen for 15 cm from one end. The 2.4 mm diameter tubing was filled with 3.7% agarose dissolved in Ringer/HEPES buffer pH 7.4. The 1 mm diameter tubing was used for perfusion of buffer solutions and drugs to the nasal epithelium. The ends of the agar electrodes were each placed in contact with a calomel half-cell in 3 M-KCl solution. Voltages were measured by connecting the calomel electrodes to a high impedance voltmeter (Keithley 617 programmable electrometer). Output from the voltmeter was recorded by connection to a Biopac MP100 data aquisition unit and PC running Acqknowledge III data acquisition software.
Nasal PD was recorded via the recording electrode placed in contact with the nasal epithelium approximately 4 cm inside the nostril. The nasal epithelium was perfused according to the following schedule and nasal PD was recorded continuously.
1. Ringer/HEPES buffer was perfused at 0.5 ml/min for 5 min, and starting baseline PD was recorded.
2. Perfusion was then switched to low chloride Ringer/HEPES buffer pH 7.4 for 30 min during which time initial hyperpolarisation of the epithelium occurred.
3. The nasal epithelium was then perfused with 10^−5 M-amiloride in low chloride Ringer/HEPES buffer pH 7.4 for 10 min. Measurement of the amiloride-sensitive (sodium-dependent) component of nasal PD was then made by measuring the difference between the average PD recorded over the 2 min before perfusion with amiloride and the average PD recorded in the period 4 to 6 min after perfusion with amiloride.
4. Amiloride was washed away from the nasal epithelium by perfusion with low chloride Ringer/HEPES buffer pH 7.4 for 30 min.
5. Steps 3 and 4 were then repeated twice more.
6. The nasal epithelium was then perfused with 3 μM 6-amidino-2-napthyl 4-guanidinobenzoate in low chloride Ringer/HEPES buffer pH 7.4 for 60 min.
7. Steps 3 and 4 were then repeated a further twice, followed by either a period of administration of amiloride (3 experiments), or a final repetition of both steps 3 and 4 (1 experiment).
Over the 5 h time course of each experiment nasal PD drifted and oscillated. […] Changes in nasal PD caused by perfusion of amiloride were calculated as the difference between the mean PD recorded in the 2 min period before perfusion with amiloride and the mean PD recorded in the plateau period 4 to 6 min after start of perfusion with amiloride. Within each experiment the change in nasal PD at each period of application of amiloride was expressed as a percentage of the maximum change observed in the experiment.

[5] = test system: nasal epithelium; test: Mucus host-defence responses during nasal perfusion; format: in vivo, human; settings: perfusion with 10^−5 M in low chloride Ringer/HEPES buffer
Description: Perfusion of the nasal epithelium with low chloride Ringer/HEPES buffer imposes a chemical gradient for chloride secretion, and therefore also provides a drive for fluid secretion.
Mucus host-defence episodes were scored 1 to 3 on the basis of the number of features and the magnitude of the responses observed. FIG. 10 reports the score of the episodes recorded, and indicates the time of their occurrence in the perfusion protocol.

[6] = biological target: T3, ENaC (Homo sapiens, UniProt P37088+P51168+P51170); settings: same range as 50% to 70% of amiloride inhibition; Bridges et al. 2001; cited from earlier work
T3 construct: Treatment of airway epithelial cells with BAY 39-9437 results in reduction of ENaC activity; host or cells: airway epithelial cells (Bridges et al 2001)
T3 sequence (P37088 1-669): T1 sequence (P37088 1-669)
T3 sequence (P51168 1-640): T1 sequence (P51168 1-640)
T3 sequence (P51170 1-649): T1 sequence (P51170 1-649)

Molecule: N=C(N)c1ccc2cc(O)ccc2c1 [AN, 6-amidino-2-naphthol]
- minimum effective concentration [1]: 10^−4 M
- amiloride ΔIsc compared to control ([2]; HBE 34 & 35 d, 28 & 29 d ALI (FIG. 8B)): not significantly different

Molecule: N=C(N)NC(=O)c1nc(Cl)c(N)nc1N [amiloride]
- ΔIsc (amiloride addition) ([3]; 10 μM amiloride apical, HBE cells 24 d in culture, 21 d ALI, FIG. 1): 9.2 μAmp
- time for short circuit current to fall to new plateau after application of amiloride ([3]; 10 μM-amiloride, apical surface): ≤ 2 min
- time at which partial depolarisation of nasal epithelium was observable [4]: ≤ 2 min
- mucus host-defence responses [5]: stimulated episodes of mucus host-defence responses

Molecule: aprotinin
- efficacy compared with high dose amiloride [6]: same range

Molecule: N=C(N)Nc1ccc(C(=O)O)cc1 [pGBA, p-guanidinobenzoic acid]
- minimum effective concentration [1]: 10^−5 M
- amiloride ΔIsc compared to control ([2]; HBE 22 d, 17 d ALI (FIG. 8A)): not significantly different
